From patent US20160221932A1, “Methods and Uses of Melatonin Ligands” (priority 2013, published 2016)
“Also recorded” adds a separate entry of the source.

Experiments:
[1] = target: T1, human-cloned MT2 receptors (Homo sapiens, UniProt P49286); experiment: cAMP assay in CHO cells expressing human-cloned MT2 (functional activity); assay type: cell-based; conditions: CHO cells
T1 construct: expressed in transfected cells
T1 sequence (P49286 1-362): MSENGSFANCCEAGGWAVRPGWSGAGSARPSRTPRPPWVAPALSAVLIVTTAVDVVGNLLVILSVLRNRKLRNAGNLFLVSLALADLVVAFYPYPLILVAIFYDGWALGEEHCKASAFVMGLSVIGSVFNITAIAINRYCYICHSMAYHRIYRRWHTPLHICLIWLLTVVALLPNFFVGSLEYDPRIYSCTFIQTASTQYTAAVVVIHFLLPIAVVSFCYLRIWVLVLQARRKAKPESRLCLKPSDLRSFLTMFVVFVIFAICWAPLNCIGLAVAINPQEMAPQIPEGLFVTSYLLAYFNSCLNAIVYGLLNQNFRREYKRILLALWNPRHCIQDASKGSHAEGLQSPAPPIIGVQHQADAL

[2] = tested on: rats with L5-L6 spinal nerves ligation; experiment: L5-L6 spinal nerves ligature model, von Frey paw withdrawal threshold; assay type: in vivo, rat; conditions: for AUC of the antiallodynic effect across 8 h: mean±SEM, VEH 36.24±1.8 g; for AUC antiallodynic effect compared with GBP 100 mg/kg / AUC antiallodynic effect compared with MLT 150 mg/kg: doses of 20 and 40 mg/kg; for tactile allodynia in L5-L6 nerve ligated rats / analgesic effect in allodynic rats: summary statement; for tactile allodynia in L5-L6 nerve ligated rats: hindpaw withdrawal threshold to mechanical stimulation; for analgesic effect in allodynic rats: hindpaw withdrawal threshold vs untreated allodynic rats
Description: Animals: Wistar rats (150-250 g, Charles-River Saint-Constant, Quebec, Canada) were used for the formalin test, hot plate test and L5-L6 spinal nerves ligature model. The animals were housed at constant room temperature and humidity under a 12 h light/dark cycle (lights on at 7 AM). Food and water were available ad libitum.
L5-L6 Spinal Nerves Ligature: Nerve injury results in abnormal pain perception, known as neuropathic pain, which is associated with hyperalgesia (high pain sensibility) and allodynia (pain perception induced by innocuous stimuli) (Campbell and Meyer, 2006). The rat model for neuropathic pain develop by Kim and Chung (Kim and Chung, 1992) was used in which the L5 and L6 spinal nerves were ligated and two weeks later allodynia was measured by paw stimulation with von Frey filaments. Briefly, animals were anesthetized with a mixture of ketamine/xylazine/acepromazine (i.p.). Following surgical preparation and exposure of the dorsal vertebral column, the left L5 and L6 spinal nerves were exposed and tightly ligated with 3.0 chromic catgut suture distal to the dorsal root ganglion. For sham-operated rats, the nerves were exposed but not ligated. The incisions were closed using 3.0 vicryl sutures, and the animals were allowed to recover for 13 days.
On day 14 after surgery, rats were singularly placed in a test chamber (clear plastic, wire mesh-bottomed cage) and allowed to acclimatize for 30-40 min. Von Frey filaments (Stoelting, Wood Dale, Ill., USA) were used to measure the 50% paw withdrawal threshold using the up and down method by (Chaplan et al., 1994). […] Lifting of the paw indicated a positive response and prompted the use of the next weaker filament, whereas absence of paw withdrawal after 5 s indicated a negative response and prompted the next filament of increasing weight. This paradigm continued for four more measurements after the initial change of the behavioral response, or until five consecutive negative (assigned a score of 15 g), or four consecutive positive (assigned a score of 0.25 g) responses. The resulting score were used to calculate the 50% response threshold by using the formula proposed by Dixon et al., 1980.
Allodynia was considered to be present when paw withdrawal thresholds were less than 4 g. (Chaplan et al., 1994). All nerve-ligated rats were verified to be allodynic, responding to a stimulus of less than 4 g. Rats without allodynia were excluded. Following the determination of the basal response, tactile allodynia was assessed at 0.5, 1, 2, 3, 4, 5, 6, 7 and 8 h post-administration for each treatment below described.
[…] […] Another group of rats received only the vehicle (VEH) consisting on a 70% DMSO/saline solution (0.9% NaCl). All treatments were administered in a single subcutaneous injection with a volume of 1 ml. Rats were tested at 0 h (basal withdrawal threshold) and 0.5, 1, 2, 3, 4, 5, 6, 7 and 8 h post-treatment administration.
(§1) Statistical Analysis: Data analysis was done using SigmaPlot 12 (Systat Software, Inc.). Two-way ANOVA for repeated measures was used to analyze data from L5-L6 models using treatments (between) and testing time (within) as factors. One-way ANOVA was used to analyze AUC in the L5-L6 spinal nerves ligation model. One-way ANOVA was used for formalin and hot-plate tests. Post-hoc analyses were performed using Bonferroni t-test comparisons or Student-Newman-Keuls (SNK) test. All data are expressed as mean±Standard Error of the Mean (SEM). P<0.05 was considered significant.

human MT1 receptor = target: T2, human MT1 receptor (Homo sapiens, UniProt P48039); experiment: 2-[125I]iodomelatonin competition binding, human MT1 in CHO cells; conditions: human MT1 stably expressed in CHO cells, calculated from IC50 by Cheng and Prusoff
T2 construct: expressed in transfected cells
T2 sequence (P48039 whole entry): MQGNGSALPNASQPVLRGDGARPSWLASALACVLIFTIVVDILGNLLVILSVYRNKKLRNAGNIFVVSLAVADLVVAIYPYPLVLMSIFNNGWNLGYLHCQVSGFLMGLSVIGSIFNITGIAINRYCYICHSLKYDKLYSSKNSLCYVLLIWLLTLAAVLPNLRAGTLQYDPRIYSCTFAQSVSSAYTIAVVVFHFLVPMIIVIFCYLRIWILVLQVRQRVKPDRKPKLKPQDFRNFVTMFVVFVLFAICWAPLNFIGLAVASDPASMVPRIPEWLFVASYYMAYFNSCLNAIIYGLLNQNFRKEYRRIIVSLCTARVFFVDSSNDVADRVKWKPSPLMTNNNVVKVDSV

human-cloned MT1 = target: T3, human-cloned MT1 (Homo sapiens, UniProt P48039); experiment: impedance assay in CHO cells expressing human-cloned MT1 (functional activity); assay type: cell-based; conditions: for activity for the MLT receptor subtype MT1 (in words): CHO cells; for MT1 Activity: key: A = ago0nist; PA = partial agonist; ANT = antagonits
T3 construct: expressed in transfected cells
T3 sequence (P48039 whole entry): as above

SNI rats = experiment: spared nerve injury (SNI) model, dynamic plantar aesthesiometer; assay type: in vivo, rat; conditions: for mechanical withdrawal threshold compared to untreated rats: summary statement, dose not stated
Description: Spared nerve injury (SNI) of the sciatic nerve and measurement of allodynia with the dynamic plantar aesthesiometer. SNI was performed according to the method of Decosterd and Woolf (2000). Rats were anaesthetized with sodium pentobarbital (50 mg/kg i.p.). The sciatic nerve was exposed at mid-thigh level […] to the trifurcation and freed of connective tissue; the three peripheral branches (sural, common peroneal, and tibial nerves) of the sciatic nerve were exposed without stretching nerve structures. Both tibial and common peroneal nerves were ligated and transected together. The sham procedure consisted of the same surgery without ligation and transection of the nerves. Fourteen days after SNI, mechanical allodynia was measured using the dynamic plantar aesthesiometer (Ugo Basile, Varese, Italy). Each rat was placed and allowed to move freely in one of the two compartments of the enclosure positioned on a metal grid surface. A mechanical stimulus was delivered to the plantar surface of the rat's hind paw through the metal grid by a steel filament (Von Frey-type), connected to a movable touch-stimulator unit exerting an increasing force of 3 g per second. The force inducing paw withdrawal was recorded to the nearest 0.1 g. Nociceptive responses for mechanical sensitivity (mechanical withdrawal threshold) were measured in grams before and after vehicle or drug administration by an experimenter blind to the treatments. A single trial at each time point was performed on the ipsilateral hind paw to SNI surgery for each rat. Nociceptive responses for mechanical sensitivity were expressed as mean±SEM (g). Groups of 6-7 rats per treatment were used, with each animal being used for one treatment only.
as §1

[3] = 20 mg/kg s.c., at 3 h (5b) or 5 h (5p) post-administration
[4] = 40 mg/kg s.c., at 2 h (5b) or 5 h (5p) post-administration

Q: How did the “activity for the MLT receptor subtype MT2 (in words)” value [1] turn out when `CC(=O)NCCN(c1ccc(F)cc1)c1cccc(Br)c1` [5p, N-{2-[(3-Bromophenyl)-4-fluorophenylamino]ethyl}acetamide] was run?
A: partial agonist activity

Q: What about the “AUC of the antiallodynic effect across 8 h” value ([2]; 5 mg/kg s.c.) of the same compound?
A: 89.03 ± 6.33 g

Q: And the “duration of effect on paw withdrawal threshold, post-administration” value (“duration of effect” below) ([2]; 10 mg/kg s.c.)?
A: up to 3 h

Q: What about the “start of increase of paw withdrawal threshold, post-administration” value (“start of increase … post-administration” below) ([2]; 10 mg/kg s.c.) of the same compound?
A: 1 h

Q: And the “AUC of the antiallodynic effect across 8 h” value ([2]; 10 mg/kg s.c.)?
A: 127.75 ± 12.08 g

Q: What about the “duration of effect” value ([2]; 20 mg/kg s.c.) of the same compound?
A: up to 6 h

Q: And the “reduction of the mechanical allodynia above the threshold (4 g)” value (“reduction … (4 g)” for short) ([2]; 20 mg/kg s.c.)?
A: reduction of the mechanical allodynia

Q: And the “start of increase … post-administration” value ([2]; 20 mg/kg s.c.)?
A: 1 h

Q: And the “highest increase in paw withdrawal threshold” value (shortened to “highest increase”) [2, 3]?
A: 394 % from basal

Q: What about the “AUC of the antiallodynic effect across 8 h” value ([2]; 20 mg/kg s.c.) of the same compound?
A: 245.9 ± 19.9 g

Q: And the “duration of effect” value ([2]; 40 mg/kg s.c.)?
A: up to 6 h

Q: And the “reduction … (4 g)” value ([2]; 40 mg/kg s.c.)?
A: reduction of the mechanical allodynia

Q: And the “start of increase … post-administration” value ([2]; 40 mg/kg s.c.)?
A: 1 h

Q: What about the “highest increase” value [2, 4] of the same compound?
A: 427.65 % from basal

Q: And the “AUC of the antiallodynic effect across 8 h” value ([2]; 40 mg/kg s.c.)?
A: 230.33 ± 17.69 g

Q: And the “AUC antiallodynic effect compared with GBP 100 mg/kg” value [2]?
A: comparable

Q: And the “AUC antiallodynic effect compared with MLT 150 mg/kg” value [2]?
A: greater antiallodynic effect

Q: And the “tactile allodynia in L5-L6 nerve ligated rats” value [2]?
A: reduced allodynia; also recorded: reversed tactile allodynia

Q: And the “analgesic effect in allodynic rats” value [2]?
A: increased the analgesic effect

Q: What about the Ki (human MT1 receptor; read-out: MT1 pKi (converted)) of the same compound?
A: 178 nM

Q: And the “activity for the MLT receptor subtype MT1 (in words)” value (human-cloned MT1)?
A: antagonist

Q: And the “MT1 Activity” value (human-cloned MT1; intrinsic activity, human MT1 in CHO cells)?
A: ANT

Q: And the “effect on mechanical allodynia compared with GBP 100 mg/kg, MLT 150 mg/kg and VEH” value (SNI rats; 20 mg/kg s.c.)?
A: greater than those produced by GBP

Q: What about the “reduction of the mechanical allodynia” value (SNI rats; 20 mg/kg s.c.) of the same compound?
A: significant reduction of the mechanical allodynia

Q: And the “reduction of the mechanical allodynia” value (SNI rats; 40 mg/kg s.c.)?
A: significant reduction of the mechanical allodynia

Q: And the “extent of reversal of mechanical allodynia” value (SNI rats; 20 and 40 mg/Kg s.c.)?
A: reversed almost completely mechanical allodynia

Q: What about the “mechanical withdrawal threshold compared to untreated rats” value (SNI rats) of the same compound?
A: significant decrease in mechanical withdrawal threshold

Q: How did the “activity for the MLT receptor subtype MT2 (in words)” value [1] turn out when `COc1cccc(N(CCNC(C)=O)c2ccccc2)c1` [5b, N-{2-[(3-Methoxyphenyl)-phenylamino]ethyl}acetamide] was run?
A: partial agonist activity

Q: What about the “AUC of the antiallodynic effect across 8 h” value ([2]; 5 mg/kg s.c.) of the same compound?
A: 81.11 ± 4.8 g

Q: What about the “AUC of the antiallodynic effect across 8 h” value ([2]; 10 mg/kg s.c.) of the same compound?
A: 70.24 ± 4.23 g

Q: What about the “duration of effect” value ([2]; 20 mg/kg s.c.) of the same compound?
A: up to 5 h

Q: And the “reduction … (4 g)” value ([2]; 20 mg/kg s.c.)?
A: reduction of the mechanical allodynia above the threshold

Q: What about the “start of increase … post-administration” value ([2]; 20 mg/kg s.c.) of the same compound?
A: 1 h

Q: And the “highest increase” value [2, 3]?
A: 419 % from basal

Q: And the “AUC of the antiallodynic effect across 8 h” value ([2]; 20 mg/kg s.c.)?
A: 219.12 ± 24.13 g

Q: What about the “duration of effect” value ([2]; 40 mg/kg s.c.) of the same compound?
A: ≤ 6 h

Q: What about the “reduction … (4 g)” value ([2]; 40 mg/kg s.c.) of the same compound?
A: reduction of the mechanical allodynia above the threshold

Q: And the “start of increase … post-administration” value ([2]; 40 mg/kg s.c.)?
A: 0.5 h

Q: And the “highest increase” value [2, 4]?
A: 395 % from basal

Q: And the “AUC of the antiallodynic effect across 8 h” value ([2]; 40 mg/kg s.c.)?
A: 220.13 ± 13.65 g

Q: What about the “AUC antiallodynic effect compared with GBP 100 mg/kg” value [2] of the same compound?
A: comparable

Q: What about the “AUC antiallodynic effect compared with MLT 150 mg/kg” value [2] of the same compound?
A: superior to MLT

Q: And the “tactile allodynia in L5-L6 nerve ligated rats” value [2]?
A: reversed tactile allodynia; also recorded: reduced allodynia

Q: And the “analgesic effect in allodynic rats” value [2]?
A: increased the analgesic effect

Q: And the “MT1 pKi” value (human MT1 receptor)?
A: 8.38

Q: And the “activity for the MLT receptor subtype MT1 (in words)” value (human-cloned MT1)?
A: partial agonist activity

Q: And the “reduction of the mechanical allodynia” value (SNI rats; 20 mg/kg s.c.)?
A: significant reduction of the mechanical allodynia

Q: What about the “reduction of the mechanical allodynia” value (SNI rats; 40 mg/kg s.c.) of the same compound?
A: significant reduction of the mechanical allodynia

Q: What about the “mechanical withdrawal threshold compared to untreated rats” value (SNI rats) of the same compound?
A: significant decrease in mechanical withdrawal threshold
